These compounds were tested on A549 lung adenocarcinoma cells (assay: Cellular uptake of FITC-siRNA by fluorescence microscopy). Details: A549 cells dosed 4 hours; green fluorescence, FIG. 5.
Type: cell-based, human
Method: The N-X-Phe-DAP derivatives facilitate functional delivery of siRNA. N-X-Phe-DAP derivatives (100 μM) were incubated with a fluorescently labelled siRNA (FITC-siRNA, 600 nM) for 30 minutes in the dark followed by dilution into DMEM. A549 lung carcinoma cells were then dosed with these solutions for 4 hours, after which N-X-Phe-DAP/siRNA cellular uptake was visualized by confocal microscopy to visual FITC-siRNA in fixed cells in which the nuclei had been stained with DAPI nuclear stain (FIG. 5). Translocation of siRNA with the N-X-Phe-DAP derivatives was compared with Lipofectamine by observing the presence of green fluorescence (FITC-siRNA) in the images.
(§1) Sample Preparation for Cell-Based Experiments: For delivery analysis and functional knockdown, N-X-Phe-DAP derivatives (10 μL, 1 mM) or Lipofectamine 3000 (6 μL) was mixed with TTF-1 siRNA (Santa Cruz Biotechnology sc-36756, 6 μL, 10 μM) in Ultrapure™ DNase/RNase-Free Distilled Water (Invitrogen 10977015) to give a final volume of 100 μL. These mixtures were incubated for 30 minutes at room temperature, followed by dilution into 1×DMEM (Gibco 11965092, 1.9 mL). For cytotoxicity assays, N-X-Phe-DAP derivatives (10 μL, 1 mM) were diluted into 1×DMEM (Gibco 11965092, 1.9 mL).
N-X-Phe-DAP-siRNA Cellular Delivery Analysis A549 lung adenocarcinoma cells (ATCC #) were seeded at a density of 1.05×10^5 cells/well in a glass bottom 24-well plate (500 μL) and grown to 70-90% confluency. Cells were washed with 1× phosphate buffered saline (PBS, Gibco 14190144), samples were added (500 μL/well), and incubated for 4 h at 37° C., 5% C02. After 4 h, media was removed, cells were washed with 1×PBS, and fixed with 4% paraformaldehyde solution. After 10 min, cells were washed twice with 1×PBS and incubated with DAPI stain (1 μg/mL) in the dark. After 5 min, cells were washed three times with 1×DPBS and stored at −20° C. until imaging. A Nikon T1 epifluorescence microscope was used for fluorescent imaging. Images were collected at 40× magnification using NIS-Elements Viewer (Nikon) software. All images were processed in Adobe Photoshop by selecting “image” then “Adjustments” then “Levels”. In the pop-up window, “Channel” was selected followed by “Green” and Output levels were adjusted with an upper limit of 200. In the sample pop-up window under “Options” the “Enhance Per Channel Contrast” was selected under algorithms.
With `NCCCNC(=O)[C@H](Cc1ccccc1)NC(=O)Cc1ccc2ccccc2c1` [2-Nap-Phe-DAP] the “FITC-siRNA delivery compared with Lipofectamine” value was “on par with Lipofectamine”.
For `NCCCNC(=O)[C@H](Cc1cccc(F)c1)NC(=O)OCC1c2ccccc2-c2ccccc21` [Fmoc-3F-Phe-DAP], the “FITC-siRNA delivery compared with Lipofectamine” value was “on par with Lipofectamine”.
In the case of `NCCCNC(=O)[C@H](Cc1c(F)c(F)c(F)c(F)c1F)NC(=O)OCC1c2ccccc2-c2ccccc21` [Fmoc-F5-Phe-DAP], the “FITC-siRNA delivery compared with Lipofectamine” value is reported as “improved siRNA delivery”.
`NCCCNC(=O)[C@H](Cc1ccccc1)NC(=O)C1CCCCC1` [Cyc-Phe-DAP] was tested, and the “FITC-siRNA delivery compared with Lipofectamine” value was “on par with Lipofectamine”.
`NCCCNC(=O)[C@H](Cc1ccccc1)NC(=O)OCc1ccccc1` [Cbz-Phe-DAP] was tested, and the “FITC-siRNA delivery compared with Lipofectamine” value was “improved siRNA delivery”.
`NCCCNC(=O)[C@H](Cc1ccccc1)NC(=O)CC1c2ccccc2-c2ccccc21` [Fm-Phe-DAP] was tested, and the “FITC-siRNA delivery compared with Lipofectamine” value was “on par with Lipofectamine”.
With `CCCCCCC(=O)N[C@@H](Cc1ccccc1)C(=O)NCCCN` [Hex-Phe-DAP] the “FITC-siRNA delivery compared with Lipofectamine” value was “improved siRNA delivery”.
For `NCCCNC(=O)[C@H](Cc1ccccc1)NC(=O)OCC1c2ccccc2-c2ccccc21` [Fmoc-Phe-DAP], the “FITC-siRNA delivery compared with Lipofectamine” value was “improved siRNA delivery”.
For `NCCCNC(=O)[C@H](Cc1ccccc1)NC(=O)CCCc1ccc2ccc3cccc4ccc1c2c34` [Pyr-Phe-DAP], the “FITC-siRNA delivery compared with Lipofectamine” value was “improved siRNA delivery”.
With `NCCCNC(=O)[C@H](Cc1ccccc1)NC(=O)Cc1cccc2ccccc12` [1-Nap-Phe-DAP] the “FITC-siRNA delivery compared with Lipofectamine” value was “improved siRNA delivery”.

Each compound was assayed on thyroid transcription factor-1 (TTF-1) mRNA expression in A549 lung carcinoma cells (assay: TTF-1 knockdown determination by RT-qPCR). Details: A549 cells; TTF-1 siRNA; 4 h dosing then 48 h incubation.
Type: cell-based, human
Parameters: knockdown (reduction) of TTF-1 mRNA: concentration or dose not given beside the values
Excerpt: Finally, N-X-Phe derivatives achieved functional delivery of siRNA. To verify delivery of functional siRNA using N-X-Phe-DAP/siRNA particles, relative thyroid transcription factor-1 (TTF-1) mRNA expression normalized to GAPDH in A549 lung carcinoma cells was quantified against knockdown efficiencies with Lipofectamine as a control delivery agent (FIG. 6, Table 3). […] “Scrambled” is control siRNA delivered with Lipofectamine. TTF-1 is delivery of TTF-1 siRNA with Lipofectamine (n=5, *p≤0.05, **p≤0.01, ****p≤0.0001).
as §1
TTF-1 Knockdown Determination: All knockdown experiments were performed in triplicate. A549 cells were seeded at a density of 1.05×10^5 cells/well in a 96-well plate (200 μL) and grown to 70-90% confluency. Cells were washed twice with 1×PBS (200 μL/well), N-X-Phe-DAP/siRNA samples were added (200 μL/well), and mixtures were incubated for 4 h at 37° C., 5% CO2. After 4 h, the media was removed, cells were washed with 1×PBS, wells were replenished with complete media containing 1×DMEM (Gibco 11965092), 10% fetal bovine serum (FBS, Invitrogen 26140087), and 1× antibiotic-antimycotic (Gibco 15240-062) and incubated an additional 48 h.
Cells were lysed and RNA was extracted using an Aurum Total RNA Mini Kit (Bio-Rad 7326820). In brief, cells were lysed with Lysis solution containing 1% β-mercaptoethanol (200 μL). Lysate was then mixed with 70% EtOH (200 μL) and processed using QIAshredder homogenizer columns (Qiagen 79656). Homogenate was then transferred to Aurum RNA binding columns, washed with Low Stringency Wash Solution, and incubated with diluted DNase I solution (80 μL) for 15 minutes at RT. Samples were then serially washed with High and Low Stringency Wash Solutions and RNA was eluded from the column with Ultrapure™ DNase/RNase-Free Distilled Water (Invitrogen 10977015, 80 μL). Recovered RNA was quantified on a Nanodrop One system and samples were diluted in Ultrapure™ DNase/RNase-Free Distilled Water (Invitrogen 10977015, 2 ng/μL). Relative TTF-1 knockdown was quantified by RT-qPCR
An iScript cDNA Synthesis Kit (Bio-Rad 1708891) was used for reverse transcription of extracted RNA samples. In brief, samples were prepared by combining 5× iScript Reaction Mix (4 μL), iScript Reverse Transcriptase (1 μL), extracted RNA (12.5 μL, 2 ng/μL), and Ultrapure™ DNase/RNase-Free Distilled Water (Invitrogen 10977015, 2.5 μL). Samples were incubated on a Bio-Rad Thermal Cycler using the following protocol: 5 min priming at 25° C., 20 min reverse transcription at 40° C., and 1 min reverse transcriptase inactivation at 95° C. Recovered cDNA was quantified on a Nanodrop One and samples were diluted in Ultrapure™ DNase/RNase-Free Distilled Water (Invitrogen 10977015, 50 ng/μL). Gene expression was quantified utilizing qPCR. A primer stock solution (750 nM, 267 μL, H2O) of TTF-1 (Santa Cruz Biotechnology, sc-36756-PR) or GAPDH (Santa Cruz Biotechnology, sc-35448-PR) primer pairs were prepared by dilution of Primer A (20 μL, 10 μM) and Primer B (20 μL, 10 μM) into Ultrapure™ DNase/RNase-Free Distilled Water (Invitrogen 10977015, 227 μL). Samples were prepared in triplicate by combining 2× iTaq Universal SYBR Green Super Mix (5 μL, Bio-Rad), TTF-1 or GAPDH primer stock (4 μL, 750 nM), and recovered cDNA (1 μL, 50 ng/μL) in sterile qPCR tubes. Quantitative Ct values were obtained by running samples on a Bio-Rad CFX96 Touch using the “PWRUP60” protocol. […]
In the case of `NCCCNC(=O)[C@H](Cc1ccccc1)NC(=O)Cc1ccc2ccccc2c1` [2-Nap-Phe-DAP], the “Relative TTF-1 mRNA Expression (Normalized to GAPDH)” value is reported as 13.4 ± 1.4.
With `NCCCNC(=O)[C@H](Cc1cccc(F)c1)NC(=O)OCC1c2ccccc2-c2ccccc21` [Fmoc-3F-Phe-DAP] the “Relative TTF-1 mRNA Expression (Normalized to GAPDH)” value was 51.8 ± 6.6.
For `NCCCNC(=O)[C@H](Cc1c(F)c(F)c(F)c(F)c1F)NC(=O)OCC1c2ccccc2-c2ccccc21` [Fmoc-F5-Phe-DAP], the “Relative TTF-1 mRNA Expression (Normalized to GAPDH)” value was 38.6 ± 4.9.
For `NCCCNC(=O)[C@H](Cc1ccccc1)NC(=O)OCc1ccccc1` [Cbz-Phe-DAP], the “Relative TTF-1 mRNA Expression (Normalized to GAPDH)” value was 30.9 ± 3.0.
For `NCCCNC(=O)[C@H](Cc1ccccc1)NC(=O)CC1c2ccccc2-c2ccccc21` [Fm-Phe-DAP], the “Relative TTF-1 mRNA Expression (Normalized to GAPDH)” value was 37.9 ± 8.3.
`NCCCNC(=O)[C@H](Cc1ccccc1)NC(=O)OCC1c2ccccc2-c2ccccc21` [Fmoc-Phe-DAP] was tested, and the “Relative TTF-1 mRNA Expression (Normalized to GAPDH)” value was 17.4 ± 2.1.
For `NCCCNC(=O)[C@H](Cc1ccccc1)NC(=O)CCCc1ccc2ccc3cccc4ccc1c2c34` [Pyr-Phe-DAP], the “Relative TTF-1 mRNA Expression (Normalized to GAPDH)” value was 33.0 ± 2.2.
In the case of `NCCCNC(=O)[C@H](Cc1ccccc1)NC(=O)Cc1cccc2ccccc12` [1-Nap-Phe-DAP], the “Relative TTF-1 mRNA Expression (Normalized to GAPDH)” value is reported as 13.8 ± 3.7.

Same assay, conditions: A549 cells; TTF-1 siRNA; normalized to GAPDH
For `NCCCNC(=O)[C@H](Cc1ccccc1)NC(=O)Cc1ccc2ccccc2c1` [2-Nap-Phe-DAP], the “knockdown (reduction) of TTF-1 mRNA” value was 87%.
For `NCCCNC(=O)[C@H](Cc1cccc(F)c1)NC(=O)OCC1c2ccccc2-c2ccccc21` [Fmoc-3F-Phe-DAP], the “knockdown (reduction) of TTF-1 mRNA” value was about 48%.
In the case of `NCCCNC(=O)[C@H](Cc1c(F)c(F)c(F)c(F)c1F)NC(=O)OCC1c2ccccc2-c2ccccc21` [Fmoc-F5-Phe-DAP], the “knockdown (reduction) of TTF-1 mRNA” value is reported as about 61%.
In the case of `NCCCNC(=O)[C@H](Cc1ccccc1)NC(=O)OCc1ccccc1` [Cbz-Phe-DAP], the “knockdown (reduction) of TTF-1 mRNA” value is reported as “approximately 70%”.
With `NCCCNC(=O)[C@H](Cc1ccccc1)NC(=O)CC1c2ccccc2-c2ccccc21` [Fm-Phe-DAP] the “knockdown (reduction) of TTF-1 mRNA” value was about 62%.
For `NCCCNC(=O)[C@H](Cc1ccccc1)NC(=O)OCC1c2ccccc2-c2ccccc21` [Fmoc-Phe-DAP], the “knockdown (reduction) of TTF-1 mRNA” value was 83%.
`NCCCNC(=O)[C@H](Cc1ccccc1)NC(=O)CCCc1ccc2ccc3cccc4ccc1c2c34` [Pyr-Phe-DAP] was tested, and the “knockdown (reduction) of TTF-1 mRNA” value was “approximately 70%”.
For `NCCCNC(=O)[C@H](Cc1ccccc1)NC(=O)Cc1cccc2ccccc12` [1-Nap-Phe-DAP], the “knockdown (reduction) of TTF-1 mRNA” value was 86%.

Same assay, conditions: relative to Lipofectamine
With `NCCCNC(=O)[C@H](Cc1ccccc1)NC(=O)Cc1ccc2ccccc2c1` [2-Nap-Phe-DAP] the knockdown efficacy group was “highly effective knockdown (dramatically improved relative to Lipofectamine)”.
For `NCCCNC(=O)[C@H](Cc1c(F)c(F)c(F)c(F)c1F)NC(=O)OCC1c2ccccc2-c2ccccc21` [Fmoc-F5-Phe-DAP], the knockdown efficacy group was “effective knockdown (slightly improved or similar relative to Lipofectamine)”.
With `NCCCNC(=O)[C@H](Cc1ccccc1)NC(=O)C1CCCCC1` [Cyc-Phe-DAP] the knockdown efficacy group was “ineffective knockdown (less effective than Lipofectamine)”.
With `NCCCNC(=O)[C@H](Cc1ccccc1)NC(=O)OCc1ccccc1` [Cbz-Phe-DAP] the knockdown efficacy group was “effective knockdown (slightly improved or similar relative to Lipofectamine)”.
With `NCCCNC(=O)[C@H](Cc1ccccc1)NC(=O)CC1c2ccccc2-c2ccccc21` [Fm-Phe-DAP] the knockdown efficacy group was “effective knockdown (slightly improved or similar relative to Lipofectamine)”.
For `CCCCCCC(=O)N[C@@H](Cc1ccccc1)C(=O)NCCCN` [Hex-Phe-DAP], the knockdown efficacy group was “ineffective knockdown (less effective than Lipofectamine)”.
In the case of `NCCCNC(=O)[C@H](Cc1ccccc1)NC(=O)OCC1c2ccccc2-c2ccccc21` [Fmoc-Phe-DAP], the knockdown efficacy group is reported as “highly effective knockdown (dramatically improved relative to Lipofectamine)”.
For `NCCCNC(=O)[C@H](Cc1ccccc1)NC(=O)CCCc1ccc2ccc3cccc4ccc1c2c34` [Pyr-Phe-DAP], the knockdown efficacy group was “effective knockdown (slightly improved or similar relative to Lipofectamine)”.
In the case of `NCCCNC(=O)[C@H](Cc1ccccc1)NC(=O)Cc1cccc2ccccc12` [1-Nap-Phe-DAP], the knockdown efficacy group is reported as “highly effective knockdown (dramatically improved relative to Lipofectamine)”.

Reference: patent publication US20260167972A1, “AMINO ACID DERIVATIVES AS NOVEL DELIVERY AGENTS FOR FUNCTIONAL DELIVERY OF OLIGONUCLEOTIDES” (University of Rochester, priority 2022, published 2026)
